ChEMBL document CHEMBL1201862, “PubChem BioAssay data set” (2004)
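How tested: cells in 96-well plates exposed to compound for 48 hours at five concentrations. GI50 is the concentration that inhibits growth by half.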 The source made the active and inactive calls. Rule as the data show it: active = GI50 up to about 1.1 µM and inactive = higher.

What was measured:
Assay in all cases: growth of human tumour cells (NCI), 48 h
SF-295 = tested on: SF-295
SNB-19 = tested on: SNB-19
MDA-N = tested on: MDA-N
Malme-3M = tested on: Malme-3M
HCT-116 = tested on: HCT-116
OVCAR-4 = tested on: OVCAR-4
U-251 = tested on: U-251
HOP-92 = tested on: HOP-92
KM12 = tested on: KM12
MCF7 = tested on: MCF7
CCRF-CEM = tested on: CCRF-CEM
UACC-257 = tested on: UACC-257
A549 = tested on: A549
T47D = tested on: T47D
PC-3 = tested on: PC-3
SK-MEL-2 = tested on: SK-MEL-2
HT-29 = tested on: HT-29
SN12C = tested on: SN12C
LOX IMVI = tested on: LOX IMVI
MDA-MB-435 = tested on: MDA-MB-435

SMILES	GI50 (SF-295)	GI50 (SNB-19)	GI50 (MDA-N)	GI50 (Malme-3M)	GI50 (HCT-116)	GI50 (OVCAR-4)	GI50 (U-251)	GI50 (HOP-92)	GI50 (KM12)	GI50 (MCF7)	GI50 (CCRF-CEM)	GI50 (UACC-257)	GI50 (A549)	GI50 (T47D)	GI50 (PC-3)	GI50 (SK-MEL-2)	GI50 (HT-29)	GI50 (SN12C)	GI50 (LOX IMVI)	GI50 (MDA-MB-435)
Cc1ccc(O)c(C2=CC3=NNC(=O)C3C(c3cccc(Cl)c3)C2)c1 (stereo unspecified)	37.6 µM (inactive)	50.6 µM (inactive)	29.5 µM (inactive)	35.3 µM (inactive)	30.9 µM (inactive)	12.8 µM (inactive)	35.5 µM (inactive)	24 µM (inactive)	21.8 µM (inactive)	17.7 µM (inactive)	31.6 µM (inactive)	64.3 µM (inactive)	52.5 µM (inactive)	28.1 µM (inactive)	40.6 µM (inactive)	28.2 µM (inactive)	25.9 µM (inactive)	32.5 µM (inactive)	23 µM (inactive)	32.7 µM (inactive)
Oc1cc(Br)cc2cccnc12	1.67 µM (inactive)	15.6 µM (inactive)	8.28 µM (inactive)	3.05 µM (inactive)	1.78 µM (inactive)	1.25 µM (inactive)	1.58 µM (inactive)	5.15 µM (inactive)	4.7 µM (inactive)	0.964 µM (active)	0.597 µM (active)	2.6 µM (inactive)	1.52 µM (inactive)	3.59 µM (inactive)	3.17 µM (inactive)	15.6 µM (inactive)	8.22 µM (inactive)	2.1 µM (inactive)	0.908 µM (active)	7.29 µM (inactive)
CC(C)(C)OC(=O)N/C=C1\C(=O)Oc2ccccc2C1=O	38.5 µM (inactive)	38 µM (inactive)	34.5 µM (inactive)	31.3 µM (inactive)	36 µM (inactive)	33 µM (inactive)	19.8 µM (inactive)	45.3 µM (inactive)	37.9 µM (inactive)	70.8 µM (inactive)	> 100 µM (inactive)	31.3 µM (inactive)	39.6 µM (inactive)	24 µM (inactive)	32.3 µM (inactive)	14.6 µM (inactive)	> 100 µM (inactive)	24.5 µM (inactive)	37.8 µM (inactive)	39.2 µM (inactive)
FC(F)(Sc1nc2ccccc2[nH]1)c1nc2ccccc2o1	> 100 µM (inactive)		> 100 µM (inactive)	24.4 µM (inactive)	> 100 µM (inactive)	> 100 µM (inactive)	> 100 µM (inactive)	> 100 µM (inactive)	> 100 µM (inactive)	> 100 µM (inactive)	> 100 µM (inactive)	> 100 µM (inactive)	> 100 µM (inactive)	> 100 µM (inactive)	> 100 µM (inactive)	> 100 µM (inactive)	> 100 µM (inactive)	> 100 µM (inactive)		> 100 µM (inactive)
Sc1ncc(-c2cncc(-c3cnc(S)nc3)n2)cn1	> 100 µM (inactive)	> 100 µM (inactive)	> 100 µM (inactive)	> 100 µM (inactive)	> 100 µM (inactive)	> 100 µM (inactive)	> 100 µM (inactive)	> 100 µM (inactive)	> 100 µM (inactive)	> 100 µM (inactive)	> 100 µM (inactive)	> 100 µM (inactive)	> 100 µM (inactive)	> 100 µM (inactive)	> 100 µM (inactive)	> 100 µM (inactive)	> 100 µM (inactive)	> 100 µM (inactive)		> 100 µM (inactive)
CCOC(=O)C(=C(SC)SC)c1nn2c(=O)cc(C)nc2s1	71.8 µM (inactive)	27.2 µM (inactive)	16.4 µM (inactive)	15.9 µM (inactive)	16.4 µM (inactive)	28.5 µM (inactive)	23.6 µM (inactive)	16.9 µM (inactive)	33 µM (inactive)	20.5 µM (inactive)	22.6 µM (inactive)	23.9 µM (inactive)	49.5 µM (inactive)	17 µM (inactive)	23.3 µM (inactive)	20.1 µM (inactive)	20.9 µM (inactive)	33.1 µM (inactive)	15.7 µM (inactive)	16.6 µM (inactive)
CC(C)CCNc1ncnc2[nH]ncc12	52.1 µM (inactive)	> 100 µM (inactive)	64.7 µM (inactive)	> 100 µM (inactive)	> 100 µM (inactive)	> 100 µM (inactive)	> 100 µM (inactive)	34.2 µM (inactive)	48.6 µM (inactive)	72.8 µM (inactive)		32 µM (inactive)	> 100 µM (inactive)	45.7 µM (inactive)	> 100 µM (inactive)	> 100 µM (inactive)	> 100 µM (inactive)	> 100 µM (inactive)	91.2 µM (inactive)	97.5 µM (inactive)
